Assay results taken from patent US8729125B2, “Ophthalmic compositions and methods for treating eyes” (Allergan, Inc., priority 2004, dated 2014).
Structures can show the parent of a compound that is named as a salt. Where two headings read alike, the source gives them in different places.

Key:
[1] = Component compatibility with stabilized chlorine dioxide preservative; assay type: physicochemical
Method: A composition including betaine and stabilized chlorine dioxide, as a preservative, was tested for component compatibility. […] Thus, betaine is not useful with certain preservatives, such as stabilized chlorine dioxide. However, betaine may advantageously be employed as a compatible solute in ophthalmic compositions which use other preservative systems, or which are free of preservatives, for example, in single or unit-dose applications.

corneal epithelial cells = experiment: Trans-epithelial electrical resistance (TEER) of layered air-lift corneal epithelial cultures exposed to hypertonic fluid; assay type: cell-based, rabbit; settings: for Osmoprotective benefit on TEER relative to hypertonic control, in words: 2 mM, 400 mOsmols/kg, 22 hours; for Concentration dependent effect on % TEER relative to the isotonic control: different concentrations, TEER measured 0 to 24 hours, FIG. 6
Description: In this experiment, corneal epithelial cells were isolated from the rabbit eye and grown under conditions so that they differentiate into a layered “air-lift” culture that includes basal, wing, and squamous cells. As they grow and differentiate, these cultures developed tight junctions between cells that provide the basis for a trans-epithelial electrical resistance (TEER) across the cell layers between the apical and basal surfaces. The TEER value is a sensitive measure of cell growth, differentiation and health.
After 5 days in culture during which the layered structure forms, different culture wells were exposed to hypertonic fluid (400 mOsmols/kg) with or without addition of one of 6 candidate compatible solutes at a low concentration (2 mM). The TEER was then measured after 22 hours of exposure. The TEER value was expressed as a percentage of the TEER value obtained from a similar culture under isotonic (300 mOsmol/kg) conditions.
Example 1 is repeated except that different concentrations of each of the candidate materials are used, and the TEER is measured at various times from 0 to 24 hours.
As in Example 1, the TEER variable is represented as % TEER relative to the isotonic control.
Example 4 was repeated except that compositions including combinations of compatible solutes were used. Compositions including only glycerol as a compatible solute were also tested.

[2] = test system: phosphorylated c-jun N-terminal kinases (p-JNK1 and p-JNK2); experiment: Western blot of phosphorylated JNK1 and JNK2 in primary corneal epithelial cultures under hyperosmolar stress; assay type: cell-based, human; settings: 2 mM
JNK = experiment: Beadlyte Cell Signaling Assay, phosphorylated:total JNK; assay type: cell-based, human; settings: 2 mM, Beadlyte method, FIG. 3
Method: (§1) A series of primary sub-confluent corneal epithelial cultures (grown for 12 to 14 days, about 4−5×10^5 cells/well) were washed three times with […] buffered saline (PBS) and switched to an Earle's Balanced Salt Solution (EBSS, 300 mOsmols/kg) for 24 hours before treatment. The corneal epithelial cells were cultured for 1 hour in an equal volume (2.0 mL/well) of EBSS media or 400 mOsmols/kg media by adding 53 mM NaCl or sucrose, with either L-carnitine inner salt, betaine hydrochloride, erythritol, or xylitol (all at a concentration of 2 mM) that were pre-added 60 minutes before adding NaCl or sucrose. Samples without these osmoprotectants were also prepared and tested.
(§2) The adherent cells were lysed in Beadlyte® Buffer B (included in the Beadlyte® Cell Signaling buffer kit, Upstate Biotechnology, Lake Placid, N.Y.) containing an EDTA-free protease inhibitor cocktail tablet (Roche Applied Science, Indianapolis, Ind.) for 15 minutes. The cell extracts were centrifuged at 12,000×g for 15 minutes at room temperature and the supernatants were stored at −80° C. until they were analyzed by Western blot analysis. The total protein concentrations of the cell extracts were determined using a Micro BCA protein assay kit (Pierce, Rockford, Ill.).
In another series of experiments, the Beadlyte® Cell Signaling Assay was used. This assay is a fluorescent bead-based sandwich immunoassay. Each sample (10 μg/25 μL) was pipetted into a well of a 96-well plate and incubated with 25 μL of diluted 5× beads coupled to phospho-JNK, phospho-ERK, phospho-p38 or total JNK, or total ERK, or total p38 specific capture antibodies overnight. […]
The beads were washed and mixed with biotinylated specific reporter antibodies for phospho-MAPK or total-MAPK, followed by streptavidin-phycoerythrin. The amount of total or phospho-MAPK was then quantified by the Luminex 100™ system (Luminex, Austin, Tex.). Fifty events per bead were read, and the data output obtained from the Bio-Plex Manager software were exported to Microsoft Excel® for further analysis. […]

ERK MAP Kinase = experiment: Beadlyte Cell Signaling Assay, phospho:total ERK MAP kinase; assay type: cell-based, human; settings: 2 mM, Beadlyte method, FIG. 5
Method: as §1, §2
In another series of experiments, the Beadlyte® Cell Signaling Assay was used. This assay is a fluorescent bead-based sandwich immunoassay. […]

| Compatibility with stabilized chlorine dioxide (Purite) preservative in a composition [1] | Compatibility with stabilized chlorine dioxide (Purite) preservative in a composition ([1]; listed as betaine) | Compound | Osmoprotective benefit on TEER relative to hypertonic control, in words (corneal epithelial cells) | Concentration dependent effect on % TEER relative to the isotonic control (corneal epithelial cells) | Levels of p-JNK1 and p-JNK2 (Western blot) in 300 mOsmols/kg cultures ([2]; 300 mOsmols/kg EBSS media) | JNK activation (levels of p-JNK1 and p-JNK2, Western blot intensity) compared to 400 mOsmols/kg media alone ([2]; pre-added 60 minutes, 1 hour in 400 mOsmols/kg media) | Amount of phospho-total JNK relative to the hypertonic control (JNK) | Amount of ERK (phospho:total) relative to the hypertonic control (ERK MAP Kinase) |
| --- | --- | --- | --- | --- | --- | --- | --- | --- |
| incompatible | not fully compatible | C[N+](C)(C)CC(=O)O [Betaine, trimethyl glycine] | – | – | – | – | – | – |
| – | – | C[N+](C)(C)C[C@H](O)CC(=O)[O-] [Carnitine, L-carnitine inner salt] | produced the most benefit | dose-related response | less robust effect | definite decrease | reduced | – |
| – | – | OC[C@@H](O)[C@@H](O)CO [Erythritol] | best results among the polyols tested | dose-related response | – | – | reduced | reduced |
| – | – | O[C@H]1[C@H](O)[C@@H](O)[C@H](O)[C@@H](O)[C@H]1O [Myo-Inositol] | good results | – | – | – | – | – |
| – | – | OC[C@@H](O)[C@H](O)[C@@H](O)CO [Xylitol] | good results | – | – | – | reduced | reduced |
